The source made the active and inactive calls. The rule behind the calls is not given here. Some results are limits rather than exact numbers.

For this assay, the system named is Leishmania donovani growth inhibition. Put plainly: Leishmania donovani growth inhibition (AID 1159560).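 Note: parasites exposed to compound for 72 h before the viability read.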
Regarding `CCOc1ccc(NC(=O)C=Cc2ccc(CC)o2)cc1`, the IC50 is 20 µM.

As for `CC(CCc1ccccc1)NC(=O)CN(Cc1ccccn1)Cc1ccccn1` (configuration not stated), the IC50 was 7.9 µM. Under `Cc1ccc(S(=O)(=O)Nc2ccc(CN3CCN(C(=O)c4cccc(C#N)c4)CC3)cc2)cc1` stands 10 µM.

Consider `Cc1cc2cc(CNc3ccc4c(c3)OCO4)c(=O)n(CCO)c2cc1C`, for which the IC50 is 6.3 µM. Turning to `Cc1cc(-c2cccc3ccccc23)nc2nc(N)nc(N)c12`, the IC50 is 2 µM. For `O=C(CN1CCC2(O)CCCCC2C1c1ccc2c(c1)OCO2)Nc1ccc(Cl)cc1Cl` (configuration not stated), the 50% inhibitory concentration (IC50) is 5 µM. Then `Cc1cc(Oc2cc(Cl)c(Cl)cc2Cl)n2ncnc2n1`, with 16 µM; and `CC(C)Oc1ccc(C(=O)Nc2ccc(N3CCOCC3)c(Cl)c2)cc1`, with > 50 µM (inactive); and `Cc1ccc(S(=O)(=O)Cn2nnnc2C(c2cccnc2)N2CCN(c3ccccc3)CC2)cc1` (configuration not stated), with 1 µM. Consider `CCCN1CCN(Cc2ccc(S(=O)(=O)Nc3cccc(C)c3)cc2)CC1`, for which the IC50 is 25 µM. Then `O=C(CSc1nnc2ccc(-c3ccc(F)cc3)nn12)N1CCCCC1`, with > 50 µM (inactive); and `Cn1c(CC(=O)NNC(=O)c2ccc3ccccc3n2)nc2ccccc21`, with 6.3 µM. Then `Cc1nn(-c2nc(N)nc(-c3ccccn3)n2)c(N)c1-c1ccccc1`, with 5 µM. Under `Cn1ccnc1CN1CCc2[nH]cnc2C1c1ccccc1OCc1ccccc1` (configuration not stated) stands > 50 µM (inactive); under `CCN(CC)c1nc(N(C)C)nc2c1CN(Cc1ccccc1)CC2`, 7.9 µM. For the molecule `Oc1c(-c2n[nH]c(Cc3ccc(F)cc3)n2)ncc2cccnc12`, the IC50 was 0.13 µM. For `CC(=O)NCCNc1cc(-c2ccnc(Nc3cccc(Cl)c3)n2)ccn1`, the IC50 is 0.32 µM. For `CCCCc1cc(Nc2cc(C3CCC3)[nH]n2)nc(N2CCC2C(N)=O)n1` (configuration not stated), the half-inhibitory concentration (IC50) is 4 µM. Consider `C=CCOCC1Cn2nc([N+](=O)[O-])nc2O1` (configuration not stated), for which the IC50 is > 50 µM (inactive). Then `CN1CCN(c2nc(-c3ccc(Cl)cc3)c3c(N)n(C)nc3n2)CC1`, with > 50 µM (inactive). As for `COc1ccc(S(=O)(=O)Nc2ccc(C(=O)Nc3nc(-c4ccccn4)cs3)cc2)cc1`, the IC50 was 1 µM. Then `CCOc1cc(NCCCN2CCN(C)CC2)c2ncccc2c1`, with 40 µM. For `CC(C)c1sc(Cl)nc1C(=O)NCCc1nc(C(=O)Nc2ccc3c(c2)OCO3)cs1`, the IC50 is 4 µM. Then `Cc1sc(C)c(C(F)(F)F)c1CNCCCNc1cc(=O)c2ccccc2[nH]1`, with > 50 µM (inactive); and `NCc1ccc2c(Cl)cc(Cl)c(O)c2n1`, with 6.3 µM. `Cn1nc(-c2ccc(NC(=O)Cc3ccccc3Cl)cc2)c2c(N)ncnc21`: the IC50 was > 50 µM (inactive). Under `CCN(CC)S(=O)(=O)c1ccc(C(=O)Nc2cc(C)nn2-c2nc(C)c(C)c(=O)[nH]2)cc1` stands 0.5 µM; under `Cc1nc(C(=O)Nc2ccc3c(c2)OCO3)nn1-c1ccc(Cl)cc1`, 2.5 µM. Then `OCC1CCCCN1c1cc(-c2ccccn2)nc(Nc2ccccc2)n1` (configuration not stated), with 3.2 µM. Under `COc1cccc(C(=O)[C@H]2C[C@@H]2CN(Cc2ccccn2)Cc2ccccn2)c1` stands 7.9 µM. `COc1ccc(C(=O)Nc2ccc(NC(=O)CO)cc2)cc1`: the IC50 is > 50 µM (inactive). Consider `CCS(=O)(=O)c1cccc(C(=O)Nc2nc(-c3ccccn3)cs2)c1`, for which the IC50 was 1.3 µM.

For the molecule `Cc1ccc(S(=O)(=O)Nc2ccc(CN3CCN(C(=O)c4cccc(C)c4)CC3)cc2)cc1`, the IC50 was 25 µM. Then `CC1CCCN(S(=O)(=O)c2ccc(C(=O)Nc3nc(-c4ccccn4)cs3)cc2)C1` (configuration not stated), with 1.6 µM; and `Cc1nn(-c2nc(N)nc(-c3ccccn3)n2)c(C)c1Cc1ccccc1`, with 5 µM; and `Cn1nc([N+](=O)[O-])nc1Oc1ccc(C(=O)c2ccccc2)cc1`, with > 50 µM (inactive).

Consider `C[C@@H](Oc1cc(-n2cnc3ccc(O[C@H]4CCNC4)cc32)sc1C(N)=O)c1ccccc1Cl`, for which the IC50 is > 50 µM (inactive).

Turning to `O=C(N[C@H](CO)c1ccccc1)c1ccc(-c2c[nH]c3nccc(C(F)(F)F)c23)s1`, the IC50 is 32 µM. Consider `O=C(Nc1ccc(C(F)(F)F)cc1)Nc1cccc([N+](=O)[O-])c1`, for which the IC50 is 7.9 µM. Under `COc1ccc(NS(=O)(=O)c2cc(NC(=O)c3ccc([N+](=O)[O-])s3)ccc2OC)cc1` stands 0.5 µM; under `Cc1ccccc1NS(=O)(=O)c1ccc2[nH]cc(C(=O)NC3CCCC3)c(=O)c2c1`, > 50 µM (inactive); under `CC(C)N(C(=O)CN1C(=O)C(N)C(=O)N(c2ccccc2)c2ccccc21)c1ccccc1` (configuration not stated), > 50 µM (inactive). Regarding `O=C1OCc2ccc(Nc3nccc(-c4cnn5ncccc45)n3)cc21`, the IC50 was 0.063 µM.

On to `O=C(NCCCn1cnc2ccccc21)c1ccc(NC(=O)c2ccco2)cc1`, for which the IC50 is 1.3 µM. Then `Cc1cc(Br)sc1CNCCCNc1cc(=O)c2ccccc2[nH]1`, with > 50 µM (inactive). For the molecule `O=C1CCCCCC1(Cc1cnc[nH]1)c1ccc(Cl)cc1Cl` (configuration not stated), the IC50 was > 50 µM (inactive). Regarding `O=c1[nH]ccc2ccc(-c3ccncc3)cc12`, the IC50 was > 50 µM (inactive). Under `CC(=O)Nc1ccc(CN2CCC(N3CC(c4ccccc4)(c4ccccc4)OCC3=O)CC2)cc1` stands 0.5 µM.

`O=C(NCC1CCCCN1C(=O)c1cccc2ccccc12)c1ccccc1` (configuration not stated): the IC50 was > 50 µM (inactive). Then `COc1ccc(-c2ccc3nnc(-c4ccc(O)c(OC)c4)n3c2)cn1`, with 4 µM; and `COc1ccc(-c2cc(C)no2)cc1S(=O)(=O)Nc1ccc(C)c(C)c1`, with 7.9 µM.

Turning to `Cc1cc(Nc2cc(C3CC3)[nH]n2)nc(N2CCC[C@H]2C(N)=O)n1`, the IC50 was 0.63 µM. Under `COc1ccc(C2CC(c3ccccc3Cl)=NN2C(=O)CNC(=O)C2CCCC2)cc1` (configuration not stated) stands > 50 µM (inactive); under `Cc1cc(NC(=O)C2CCCCC2)n(-c2nc3c(c(=O)[nH]2)CCC3)n1`, 0.04 µM. Under `CC(C)C[C@H](NC(=O)c1csc(-c2cccs2)n1)C(=O)NC1(C#N)CC1` stands 5 µM. For `NC(=O)c1cc(NC(=O)c2ccccc2COc2ccccc2)ccc1Cl`, the IC50 is 7.9 µM. `O=S(=O)(c1cccc(CSc2nnc(-c3ccc4c(c3)OCO4)o2)c1)N1CCOCC1`: the IC50 was 0.5 µM. Then `OC[C@@H](Nc1nccc(-c2c(-c3ccc(F)cc3)ncn2C2CCNCC2)n1)c1ccccc1`, with > 50 µM (inactive). Under `CN(Cc1nc2ccccc2s1)C(=O)C=Cc1cc2ccccc2o1` stands 50 µM. On to `Cc1cc2nc(CN(C)Cc3ncccc3C)[nH]c2cc1C`, for which the IC50 was 5 µM. Turning to `COc1ccc2nccc([C@H](O)CN3CC[C@H](NC(=O)c4ccc(Br)cc4)[C@@H](O)C3)c2n1`, the IC50 was 3.2 µM. Then `COCc1cc(Nc2ccc(Cl)cc2)nc(-c2ccccn2)n1`, with 2.5 µM; and `CN(C)c1ccc(-c2cc3nccnc3c(OC[C@H]3CCCNC3)n2)cn1`, with > 50 µM (inactive); and `Cc1cccc(Nc2nc(-c3ccccn3)cs2)n1`, with 4 µM. Under `Cc1cc(Br)cc(C(=O)c2c(C(C)C)c(=O)[nH]c(=O)n2Cc2ccnc(N)c2)c1` stands > 50 µM (inactive); under `Cc1cc(C)cc(NS(=O)(=O)c2cc(-c3cc(C)[nH]n3)ccc2C)c1`, 2.5 µM. Then `Clc1ccc(CN2CCN(C3=NCCN3)CC2)cc1Cl`, with > 50 µM (inactive); and `O=c1cc(CSc2ccc(Cl)cc2)nc(-c2ccccn2)[nH]1`, with 1.6 µM. With `CN(C)CCN(C)Cc1ccc(F)cc1NS(=O)(=O)c1ccc(Cl)c(Cl)c1`, the IC50 was 7.9 µM. Regarding `CCCc1cc(N)nc(-c2cc(CCC)cc(N)n2)c1`, the IC50 was 20 µM.

Consider `O=C(CN(c1cccc(C(F)(F)F)c1)S(=O)(=O)c1ccc(Cl)cc1)NCc1ccc(F)c(F)c1`, for which the IC50 was > 50 µM (inactive). For `COc1ccc(S(=O)(=O)NCc2ccc(-c3ccc(CN(C)CCO)cc3)cc2)cc1`, the IC50 is > 50 µM (inactive). Turning to `Cc1[nH]n2c(=O)c3c(nc2c1-c1ccc(Cl)cc1)CCCC3`, the IC50 is 1.3 µM. As for `Clc1ccc(Sc2cnccc2N2CCOCC2)cc1`, the IC50 was 7.9 µM. As for `COc1ccc(C2CC(c3ccc(NS(C)(=O)=O)cc3)=NN2C(=O)c2cccs2)cc1OC` (configuration not stated), the IC50 was 13 µM. As to `COc1ccc(S(=O)(=O)NC(C)C)cc1Nc1ncc(-c2cccc(F)c2)cn1`, the IC50 is 6.3 µM. Then `Cc1nc(C(=O)Nc2ccc3c(c2)OCO3)nn1-c1ccc(F)cc1`, with 2 µM; and `O=C(NCCc1csc(-c2ccc(F)cc2)n1)c1cccs1`, with > 50 µM (inactive); and `O=C(NCCc1ccccn1)C(c1cn[nH]c1)N1CCN(c2ccc(Cl)c(Cl)c2)CC1` (configuration not stated), with 2.5 µM.

`O=C(NCCc1ccn(-c2ccccc2)n1)C1CCCCC1`: the IC50 is > 50 µM (inactive). Under `CC(C)(C)CC(=O)NCCc1csc(-c2ccc(F)cc2)n1` stands > 50 µM (inactive); under `Cc1cc2ncn(-c3ccc([N+](=O)[O-])cc3C#N)c2cc1C`, > 50 µM (inactive). Then `NS(=O)(=O)c1ccc(Nc2ncc3cccc(OC4CCNCC4)c3n2)cc1`, with 40 µM; and `O=C(COc1ccccc1)Nc1ccccc1C(=O)Nc1nccs1`, with > 50 µM (inactive). Turning to `CCc1cccc(CC)c1-n1c(SCC(=O)NC(=O)NCc2ccco2)nnc1-c1cccnc1`, the IC50 was > 50 µM (inactive). Under `CN(C)CCN(C)Cc1ccc(Cl)cc1NS(=O)(=O)c1ccc(Cl)c(Cl)c1` stands 5 µM; under `O=C(NCCc1cccnc1)c1ccc(-c2ccccc2F)o1`, 20 µM; under `Cc1cccnc1CN1CCN(CCCOc2ccc(-c3ccc(C(N)=O)cc3)cc2)CC1`, > 50 µM (inactive). Under `CN(Cc1nc2c(C(=O)N3CCN(Cc4ccccc4)CC3)cccc2[nH]1)C1CCCc2cccnc21` (configuration not stated) stands 5 µM; under `CS(=O)(=O)NC1CCC(Oc2cc3cnccc3cc2-c2ccsc2)CC1` (configuration not stated), 32 µM. Under `COc1ccc2ncc(=O)n(CCN3CCOC(CNCc4ccc(C(F)(F)F)cc4F)C3)c2n1` (configuration not stated) stands 40 µM.

On to `COc1ccc(C(=O)N2CCC(Nc3cccnc3)C2)c(OC)n1` (configuration not stated), for which the half-maximal inhibitory concentration (IC50) was 16 µM.

Source of the values: PubChem BioAssay AID1159560 (GlaxoSmithKline (GSK), 2015).
